Calls of active or inactive are those of the source.
Experiments:
[1] = intracellular Trypanosoma cruzi inhibitors in host cells – cell-based, plate reader, cherry-pick samples, set 3, dose response (AID 651818); type: functional;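 further: compounds incubated with infected cells for about four days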
[2] = target: Paired box protein Pax-8 (Homo sapiens, UniProt Q06710); assay: PAX8 transcriptional activity inhibition in RMG-I – RMG-I cells, luciferase, cherry-pick, dose response (AID 687027); type: functional, cell-based;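 further: luciferase reporter driven by Pax8 target thyroperoxidase promoter measured by SteadyGlo luminescence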
Chain of Paired box protein Pax-8 (Q06710 whole entry): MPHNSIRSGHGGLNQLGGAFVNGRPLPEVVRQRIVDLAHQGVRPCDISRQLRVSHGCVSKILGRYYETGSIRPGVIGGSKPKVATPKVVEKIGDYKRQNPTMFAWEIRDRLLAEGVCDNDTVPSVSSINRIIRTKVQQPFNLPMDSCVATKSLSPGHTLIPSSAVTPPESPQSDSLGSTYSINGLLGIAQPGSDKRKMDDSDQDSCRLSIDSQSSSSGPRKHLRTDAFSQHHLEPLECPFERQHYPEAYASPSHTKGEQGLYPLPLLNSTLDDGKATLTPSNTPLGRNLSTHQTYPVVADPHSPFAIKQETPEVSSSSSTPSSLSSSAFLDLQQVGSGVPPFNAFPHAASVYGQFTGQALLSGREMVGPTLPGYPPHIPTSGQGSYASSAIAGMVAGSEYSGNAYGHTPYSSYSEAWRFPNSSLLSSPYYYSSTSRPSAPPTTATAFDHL

[3] = OVCAR-3 cell viability loss – plate reader, dry powder samples, PAX8 inhibitor project, dose response (AID 743044); type: functional, cell-based
[4] = target: T1, RNA-binding protein pos-1 (Caenorhabditis elegans, UniProt G5EF15); assay: disruptors of C. elegans POS-1 RNA interaction – biochemical, fluorescence polarization, dose response (AID 1964);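 further: purified POS-1 fused to maltose binding protein made in E. coli; potency of compounds blocking POS-1 binding to fluorescent RNA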
T1 sequence (G5EF15 whole entry): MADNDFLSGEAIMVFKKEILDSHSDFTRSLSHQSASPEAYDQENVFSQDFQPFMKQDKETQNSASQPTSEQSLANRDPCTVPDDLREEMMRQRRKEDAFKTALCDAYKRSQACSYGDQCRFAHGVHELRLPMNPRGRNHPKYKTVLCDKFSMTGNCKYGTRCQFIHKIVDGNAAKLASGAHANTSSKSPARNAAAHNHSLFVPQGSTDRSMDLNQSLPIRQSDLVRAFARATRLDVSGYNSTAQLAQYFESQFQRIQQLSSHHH

[5] = target: T2, Zinc finger protein mex-5 (Caenorhabditis elegans, UniProt Q9XUB2); assay: potency of MEX-5 RNA-binding blockers – biochemical, C. elegans, fluorescence polarization, dose response (AID 1960)
T2 sequence (Q9XUB2 whole entry): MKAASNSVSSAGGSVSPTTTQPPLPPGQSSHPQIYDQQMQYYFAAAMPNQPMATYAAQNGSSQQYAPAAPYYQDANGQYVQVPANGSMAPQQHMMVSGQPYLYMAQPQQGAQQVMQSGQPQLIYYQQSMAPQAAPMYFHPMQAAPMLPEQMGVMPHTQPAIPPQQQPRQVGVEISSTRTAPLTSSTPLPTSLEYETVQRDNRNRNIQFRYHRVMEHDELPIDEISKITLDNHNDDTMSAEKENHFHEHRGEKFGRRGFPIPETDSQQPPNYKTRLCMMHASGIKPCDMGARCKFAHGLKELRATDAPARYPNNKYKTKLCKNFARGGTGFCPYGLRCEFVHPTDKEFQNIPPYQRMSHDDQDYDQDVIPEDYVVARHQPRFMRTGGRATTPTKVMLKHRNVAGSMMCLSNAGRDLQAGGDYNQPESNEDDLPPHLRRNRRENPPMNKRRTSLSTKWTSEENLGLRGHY

[6] = cells
[7] = Trypanosoma cruzi growth suppression in host cells – NIH3T3 host cells, beta-gal luminescence, confirmation (AID 2044); type: functional, cell-based;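 further: intracellular parasites grown in NIH/3T3 mouse fibroblasts as host cells; luminescent beta-galactosidase reporter signal from transgenic T. cruzi replicating inside host cells; inhibitors lower the luminescence signal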
[8] = NIH3T3 cell viability loss – ATP luminescence, mouse fibroblasts, counter-screen, dose response (AID 2010); type: functional, cell-based;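 further: cells exposed to compound for about 90 hours before reading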
[9] = target: Cytochrome P450 2C19 (Homo sapiens, UniProt P33261); assay: Cytochrome panel assay with activity outcomes. Panel member name: p450-cyp2c19 Compounds with AC50 equal or less than 10 uM are considered active; type: functional; settings: read-out: AC50
Chain of Cytochrome P450 2C19 (P33261 whole entry): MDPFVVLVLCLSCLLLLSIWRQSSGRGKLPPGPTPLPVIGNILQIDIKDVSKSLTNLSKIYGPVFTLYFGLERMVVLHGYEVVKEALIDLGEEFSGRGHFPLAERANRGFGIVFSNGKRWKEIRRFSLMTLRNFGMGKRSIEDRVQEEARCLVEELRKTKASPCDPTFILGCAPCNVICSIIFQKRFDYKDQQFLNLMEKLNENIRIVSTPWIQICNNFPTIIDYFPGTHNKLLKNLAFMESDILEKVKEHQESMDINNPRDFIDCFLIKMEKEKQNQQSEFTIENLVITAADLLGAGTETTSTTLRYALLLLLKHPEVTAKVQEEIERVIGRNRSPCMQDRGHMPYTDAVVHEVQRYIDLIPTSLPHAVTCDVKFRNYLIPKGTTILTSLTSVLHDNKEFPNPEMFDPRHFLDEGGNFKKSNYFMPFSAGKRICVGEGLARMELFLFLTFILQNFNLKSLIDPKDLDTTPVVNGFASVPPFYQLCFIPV

[10] = target: Cytochrome P450 2C9 (Homo sapiens, UniProt P11712)
Chain of Cytochrome P450 2C9 (P11712 whole entry): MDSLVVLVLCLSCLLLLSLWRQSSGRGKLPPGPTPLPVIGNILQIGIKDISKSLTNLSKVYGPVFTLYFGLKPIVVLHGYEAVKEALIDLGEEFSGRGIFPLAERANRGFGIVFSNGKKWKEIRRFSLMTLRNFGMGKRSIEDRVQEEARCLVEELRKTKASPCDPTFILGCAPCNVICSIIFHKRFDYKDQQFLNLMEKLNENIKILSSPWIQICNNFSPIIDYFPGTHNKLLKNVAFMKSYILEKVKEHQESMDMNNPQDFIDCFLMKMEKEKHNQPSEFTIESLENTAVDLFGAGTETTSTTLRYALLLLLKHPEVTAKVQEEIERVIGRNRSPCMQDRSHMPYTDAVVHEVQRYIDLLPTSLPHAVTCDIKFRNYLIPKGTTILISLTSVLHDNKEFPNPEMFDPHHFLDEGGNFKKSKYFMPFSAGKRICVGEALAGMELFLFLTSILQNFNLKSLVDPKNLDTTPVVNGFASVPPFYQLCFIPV

[11] = target: Cytochrome P450 3A4 (Homo sapiens, UniProt P08684);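 further: CYP3A4 tested as one member of a cytochrome P450 panel screen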
Chain of Cytochrome P450 3A4 (P08684 whole entry): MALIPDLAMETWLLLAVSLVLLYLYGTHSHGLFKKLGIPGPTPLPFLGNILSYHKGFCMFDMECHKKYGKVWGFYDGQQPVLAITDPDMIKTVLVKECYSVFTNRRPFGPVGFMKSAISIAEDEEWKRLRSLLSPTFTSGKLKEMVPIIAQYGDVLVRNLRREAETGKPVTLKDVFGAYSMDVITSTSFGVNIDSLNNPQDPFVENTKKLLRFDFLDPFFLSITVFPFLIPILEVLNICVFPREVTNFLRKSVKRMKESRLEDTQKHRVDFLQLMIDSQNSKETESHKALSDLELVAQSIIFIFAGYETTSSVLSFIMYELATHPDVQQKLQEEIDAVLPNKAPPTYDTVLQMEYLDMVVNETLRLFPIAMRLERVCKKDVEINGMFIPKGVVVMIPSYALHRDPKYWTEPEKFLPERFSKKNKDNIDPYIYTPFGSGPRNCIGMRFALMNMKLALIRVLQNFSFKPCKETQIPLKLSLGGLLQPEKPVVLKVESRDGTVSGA

[12] = growth inhibition of yeast DHODH-expressing 3D7 parasites – SYBR Green, dry powder samples, dose response (AID 1159570); type: functional, cell-based;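 further: parasite growth measured after 72 hours of compound exposure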
[13] = toxicity to human HepG2 hepatoma cells – cell-based, plate reader, dry powder samples, cytotoxicity control, dose response (AID 1159569); type: functional;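 further: inhibitor potency with signal falling toward the positive control level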
[14] = P. falciparum Dd2 growth inhibitors, dose response, SYBR Green, cherry-picked samples (AID 1159567); type: functional, cell-based
[15] = Dd2 malaria parasite growth inhibition potency – SYBR Green, dry powder samples, dose response (AID 1159566); type: functional, cell-based;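 further: potency for growth inhibition with lower SYBR green DNA signal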
[16] = growth inhibition of PfATP4-mutant resistant parasites – NITD609-resistant line, SYBR Green, dry powder, dose response (AID 1159571); type: functional, cell-based;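 further: parasites synchronized at ring stage by sorbitol before testing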
[17] = toxicity to human hepatoma HepG2 cells – cell-based, cherry-picked samples, cytotoxicity control, dose response (AID 1159577); type: functional
[18] = target: T3, DNA repair protein RAD52 homolog (Homo sapiens, UniProt P43351); type: functional, biochemical
T3 sequence (P43351 whole entry): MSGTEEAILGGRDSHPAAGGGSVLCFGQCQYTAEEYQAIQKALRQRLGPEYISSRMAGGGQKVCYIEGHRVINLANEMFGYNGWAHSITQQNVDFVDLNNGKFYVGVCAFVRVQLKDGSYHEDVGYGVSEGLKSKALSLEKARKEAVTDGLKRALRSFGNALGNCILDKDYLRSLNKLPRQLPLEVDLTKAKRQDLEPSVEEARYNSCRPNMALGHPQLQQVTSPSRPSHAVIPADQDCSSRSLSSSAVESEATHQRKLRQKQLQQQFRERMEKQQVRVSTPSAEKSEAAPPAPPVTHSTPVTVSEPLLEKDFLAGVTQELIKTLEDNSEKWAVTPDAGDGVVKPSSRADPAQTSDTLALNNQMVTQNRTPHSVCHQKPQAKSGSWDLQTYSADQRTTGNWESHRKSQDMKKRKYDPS

[19] = target: T4, Microphthalmia-associated transcription factor (Homo sapiens, UniProt O75030); assay: reducers of TRPM1 reporter luminescence, concentration series – cell-based, SK-MEL-5, cherry-picked, set 3, MITF inhibitor project, dose response (AID 493073); type: functional;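 further: SK-MEL-5 melanoma cells with luciferase driven by the MITF target TRPM1 promoter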
T4 sequence (O75030 whole entry): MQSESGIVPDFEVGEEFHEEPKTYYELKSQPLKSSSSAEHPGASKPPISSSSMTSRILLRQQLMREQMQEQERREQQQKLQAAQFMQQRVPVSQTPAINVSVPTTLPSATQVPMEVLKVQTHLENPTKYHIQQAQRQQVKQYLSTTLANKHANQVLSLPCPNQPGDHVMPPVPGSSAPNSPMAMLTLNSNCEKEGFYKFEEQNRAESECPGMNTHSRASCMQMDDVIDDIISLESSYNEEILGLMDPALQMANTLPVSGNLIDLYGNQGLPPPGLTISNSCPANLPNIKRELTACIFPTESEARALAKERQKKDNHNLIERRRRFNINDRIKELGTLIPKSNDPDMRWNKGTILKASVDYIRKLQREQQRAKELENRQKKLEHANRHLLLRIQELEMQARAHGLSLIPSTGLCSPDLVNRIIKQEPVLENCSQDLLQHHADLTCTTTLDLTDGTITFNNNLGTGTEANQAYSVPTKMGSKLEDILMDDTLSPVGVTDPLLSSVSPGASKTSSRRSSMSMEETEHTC

Which AC50 [1] does the source give for C[C@@H]1CN([C@H](C)CO)C(=O)c2cccc(NC(=O)CCCCCC(=O)Nc3ccccc3N)c2O[C@@H]1CN(C)Cc1ccc(-c2ccccc2)cc1 here?
Its AC50 is 4.22 µM (active).

With C[C@H](CO)N1C[C@H](C)[C@H](CN(C)C(=O)Nc2cccc3ccccc23)Oc2c(NC(=O)Nc3ccc(C(F)(F)F)cc3)cccc2C1=O as the compound, how does the AC50 [1] read?
Its AC50 is 6.42 µM (active).

With C[C@H](CO)N1C[C@H](C)[C@H](CN(C)C(=O)Nc2ccc(F)cc2)Oc2c(NC(=O)Nc3cccc4ccccc34)cccc2C1=O as the compound, how does the AC50 [1] read?
The AC50 was 1.79 µM (active).

With COc1ccc(CN(C)C[C@@H]2OCCCC[C@@H](C)Oc3ccc(NC(=O)Nc4ccc(C(F)(F)F)cc4)cc3C(=O)N([C@H](C)CO)C[C@@H]2C)cc1 as the compound, how does the AC50 [1] read?
The AC50 was 2.48 µM (active).

For C[C@@H]1CN([C@H](C)CO)C(=O)Cc2cc(NC(=O)Cc3cn(C)c4ccccc34)ccc2O[C@H]1CN(C)Cc1ccc(-c2ccccc2)cc1, which AC50 [1] is on record?
Its AC50 is 4.23 µM (active).

With COc1ccc(S(=O)(=O)Nc2ccc3c(c2)C(=O)N([C@H](C)CO)C[C@@H](C)[C@@H](CN(C)Cc2ccc(C(F)(F)F)cc2)OCCCC[C@H](C)O3)cc1 as the compound, how does the AC50 [2] read?
The AC50 was 3.43 µM (active).

What about the AC50 [3] of the same compound?
Its AC50 is 5.6 µM (active).

Which EC50 [4] does the source give for CC(=N)/C(C#N)=C(/O)CSc1ncnc2ccccc12 here?
The EC50 was > 300 µM (not active).

And the EC50 [5]?
Its EC50 is 8.02 µM (active).

And the IC50 [6]?
Its IC50 is 17.9 µM (active).

Which EC50 [7] does the source give for CCOC(=O)N/N=C(/C)c1ccc([N+](=O)[O-])o1 here?
Its EC50 is 0.589 µM (active).

What about the EC50 [8] of the same compound?
The EC50 was > 30 µM (not active).

What about the AC50 [9] of the same compound?
The AC50 was 25.1 µM (inconclusive).

And the AC50 [10]?
Its AC50 is “inconclusive”.

Which AC50 [11] does the source give for O=C(N/N=C/c1cccc(F)c1)c1csc2c1CCCC2 here?
Its AC50 is 15.8 µM (inconclusive).

What about the AC50 [10] of the same compound?
Its AC50 is “inconclusive”.

Which results are given for COc1ccccc1S(=O)(=O)N(C)C[C@@H]1Oc2cc(C#CCC(C)C)ccc2S(=O)(=O)N([C@@H](C)CO)C[C@H]1C?
AC50 [12]: 0.521 µM (active); AC50 [13]: > 100 µM (inactive); AC50 [14]: 0.652 µM (active); AC50 [15]: 0.609 µM (active); AC50 [16]: 0.331 µM (active)

Which results are given for COc1cccc(NC(=O)N2[C@H](CO)[C@H](c3ccccc3)[C@H]2CNCC(C)C)c1?
AC50 [12]: 1.35 µM (active); AC50 [13]: 85.6 µM (active); AC50 [14]: 1.78 µM (active); AC50 [15]: 0.974 µM (active); AC50 [16]: 1.26 µM (active)

Which AC50 [14] does the source give for c1ccc(-c2ccc([C@@H]3[C@@H]4CN(Cc5cccnc5)C[C@H]3N4)cc2)cc1 here?
The AC50 was 0.472 µM (active).

And the AC50 [17]?
The AC50 was 9.31 µM (active).

Which results are given for Cc1ccc(-c2ccc([C@@H]3[C@@H]4CN(Cc5cccnc5)C[C@H]3N4)cc2)cc1?
AC50 [14]: 0.457 µM (active); AC50 [17]: 9.99 µM (active)

Which AC50 [12] does the source give for C/C=C/c1ccc([C@H]2[C@@H]3CN(C(=O)Nc4ccc(C(F)(F)F)cc4)C[C@H]2N3)cc1 here?
The AC50 was 4.43 µM (active).

And the AC50 [13]?
The AC50 was 25.8 µM (active).

And the AC50 [14]?
The AC50 was 3.42 µM (active).

And the AC50 [15]?
The AC50 was 5.42 µM (active).

What about the AC50 [17] of the same compound?
Its AC50 is 25.2 µM (active).

And the AC50 [16]?
Its AC50 is 4.31 µM (active).

For COc1cccc(CN2CC3(C2)CN(C(=O)Nc2ccc(F)cc2)[C@@H](CO)c2c3c3ccc(OC)cc3n2C)c1, which AC50 [14] is on record?
Its AC50 is 2.98 µM (active).

What about the AC50 [17] of the same compound?
The AC50 was 11.8 µM (active).

What does the source list for COc1ccc2c3c(n(C)c2c1)[C@@H](CO)N(Cc1ccccc1OC)CC31CCN(CC2CC2)CC1?
AC50 [12]: 2.52 µM (active); AC50 [13]: 34.5 µM (active); AC50 [14]: 1.29 µM (active); AC50 [15]: 0.522 µM (active); AC50 [17]: > 39 µM (inactive); AC50 [16]: 1.07 µM (active)

For C[N+]1(CC(=O)NNc2c3ccccc3nc3ccccc23)CCOCC1, which AC50 [18] is on record?
The AC50 was 2.83 µM (active).

Which AC50 [19] does the source give for S=C=Nc1cccc(C2(N3CCCCC3)CCCCC2)c1 [METAPHIT METHANESULFONATE] here?
Its AC50 is 7.36 µM (active).
